Measurements: ChEMBL document CHEMBL1129195, “New antithrombotic RGD-mimetics with high bioavailability” (1996)

Key:
[1] = test system: Cavia porcellus; assay: Ex vivo inhibition of collagen-induced platelet aggregation in guinea pig after p.o. administration.
[2] = test system: Cavia porcellus; assay: Ex vivo inhibition of collagen-induced platelet aggregation in guinea pig after i.v. administration.; assay type: functional; conditions: iv
[3] = test system: Monkey; assay: Ex vivo inhibition of collagen-induced platelet aggregation in cynomolgus monkey after p.o. administration.; assay type: functional; conditions: Cercopithecidae, in Macaca fascicularis, po
[4] = test system: Monkey; assay: Ex vivo inhibition of collagen-induced platelet aggregation in cynomolgus monkey after i.v. administration.; assay type: functional; conditions: Cercopithecidae, in Macaca fascicularis, iv

ED50 [1] [mg/kg]	Structure (SMILES)	ED50 [2] [mg/kg]	ED50 [3] [mg/kg]	ED50 [4] [mg/kg]
10	CCOC(=O)C1CCN(CC2CN(c3ccc(C(=N)NC(=O)c4ccccc4)cc3)C(=O)O2)CC1 (configuration not stated)	–	–	–
1	CC(C)(C)OC(=O)CN1CCN(C[C@@H]2CN(c3ccc(C(=N)NC(=O)c4ccccc4)cc3)C(=O)O2)CC1	0.4	> 1	–
0.2	CCOC(=O)CN1CCN(CC2CN(c3ccc(C(=N)NC(=O)Oc4ccccc4)cc3)C(=O)O2)CC1 (configuration not stated)	–	–	–
> 1	CCOC(=O)CCN1CCN(C[C@@H]2CN(c3ccc(C(=N)NC(=O)c4ccccc4)cc3)C(=O)O2)CC1	–	–	–
> 10	CC(=O)O/N=C(/N)c1ccc(N2C[C@@H](CN3CCN(CC(=O)O)CC3)OC2=O)cc1	–	–	–
> 1	CCOC(=O)CN1CCN(C[C@@H]2CN(c3ccc(C(=N)N)cc3)C(=O)O2)CC1	0.08	–	–
< 1	CCOC(=O)CN1CCN(C[C@@H]2CN(c3ccc(C(=N)NC(=O)c4ccc(OC)cc4)cc3)C(=O)O2)CC1	–	> 1	–
> 10	CCOC(=O)CCN1CCN(C[C@H]2CN(c3ccc(C(=N)NC(=O)c4ccccc4)cc3)C(=O)O2)CC1	–	–	–
–	CC(C)(C)OC(=O)CN1CCN(C[C@@H]2CN(c3ccc(C(=N)N)cc3)C(=O)O2)CC1	1	–	–
0.32	CCOC(=O)CN1CCN(C[C@@H]2CN(c3ccc(C(=N)NC(=O)c4ccccc4)cc3)C(=O)O2)CC1	0.09	1.3	0.13
> 1	CCOC(=O)CN1CCN(C[C@H]2CN(c3ccc(C(=N)NC(=O)c4ccccc4)cc3)C(=O)O2)CC1	–	–	–
< 1	CCOC(=O)CN1CCN(C[C@@H]2CN(c3ccc(C(=N)NC(=O)OCc4ccccc4)cc3)C(=O)O2)CC1	–	> 1	–
< 1	CCOC(=O)CN1CCN(C[C@@H]2CN(c3ccc(C(=N)NC(=O)c4cccc(C(F)(F)F)c4)cc3)C(=O)O2)CC1	–	> 1	–
> 10	N/C(=N/C(=O)c1ccccc1)c1ccc(N2C[C@@H](CN3CCN(CC(=O)O)CC3)OC2=O)cc1	–	–	–
3	CCOC(=O)CC1(O)CCN(CC2CN(c3ccc(C(=N)NC(=O)c4ccccc4)cc3)C(=O)O2)CC1 (configuration not stated)	–	–	–
> 10	CCOC(=O)CCN1CCN(CC2CN(c3ccc(C(=N)NC(=O)OC)cc3)C(=O)O2)CC1 (configuration not stated)	–	–	–
0.4	CCOC(=O)CN1CCN(CC2CN(c3ccc(C(=N)NC(=O)OC)cc3)C(=O)O2)CC1 (configuration not stated)	0.4	–	–
< 1	CCOC(=O)CN1CCN(CC2CN(c3ccc(C(=N)NC(=O)c4ccco4)cc3)C(=O)O2)CC1 (configuration not stated)	–	> 1	–
3	CCOC(=O)CC1CCN(CC2CN(c3ccc(C(=N)NC(=O)c4ccccc4)cc3)C(=O)O2)CC1 (configuration not stated)	–	–	–
0.4	CCOC(=O)CN1CCN(C[C@@H]2CN(c3ccc(C(=N)NC(=O)C(C)C)cc3)C(=O)O2)CC1	–	1.3	–
0.2	CCOC(=O)CN1CCN(C[C@@H]2CN(c3ccc(C(=N)NC(=O)OC)cc3)C(=O)O2)CC1 [GANTOFIBAN]	–	0.07	0.5
> 1	COC(=O)/N=C(/N)c1ccc(N2CC(CN3CCN(CC(=O)OC(C)(C)C)CC3)OC2=O)cc1 (configuration not stated)	–	–	–
0.17	CCOC(=O)CN1CCN(C[C@@H]2CN(c3ccc(C(=N)NC(=O)OCC)cc3)C(=O)O2)CC1	–	0.7	–
> 10	CC(C)(C)OC(=O)CCN1CCN(CC2CN(c3ccc(C(=N)NC(=O)c4ccccc4)cc3)C(=O)O2)CC1 (configuration not stated)	–	–	–
–	CCOC(=O)CN1CCN(CC2CN(c3ccc(C(=N)NC(=O)c4cccnc4)cc3)C(=O)O2)CC1 (configuration not stated)	1	–	–
0.1	COC(=O)CN1CCN(C[C@@H]2CN(c3ccc(C(=N)NC(=O)OC)cc3)C(=O)O2)CC1	–	0.8	–
